# Data: US9771370B2, “Compounds for the inhibition of indoleamine-2,3-dioxygenase” (Merck Patent GmbH, priority 2014, dated 2017)
# Target: Recombinant human IDO (Homo sapiens, UniProt P14902)
# Assay: Bridge-IT tryptophan fluorescence assay of human IDO-1 inhibition
# Format: biochemical
# Conditions: recombinant human IDO 7.5 nM, L-tryptophan
# Description: Measurement of human IDO-1 inhibition is performed in 384 well format using the Bridge-IT® tryptophan Fluorescence Assay (Mediomics, LLC, St. Louis, Mo., U.S.A.).
# The reaction is initiated by the addition of L-Tryptophan (Sigma) at a final concentration of 100 μM in assay buffer. After 90 minutes of incubation at 37° C., the reaction is stopped by transferring 1 μl of the reaction mixture to 9 μl of Bridge-IT assay solution A. After 30 min of incubation at 30° C., the fluorescence intensity was measured at λex=485 nm and λem=665 nm using Perkin Elmer Envision® Multilabel Reader.
# Measurement of human IDO-1 inhibition was performed in 384-well format using the BRIDGE-IT® tryptophan Fluorescence Assay (Mediomics, LLC, St. Louis, Mo., U.S.A.). […] After 30 minutes of pre-incubation at 25° C., the reaction was initiated by the addition of L-Tryptophan (Sigma) at a final concentration of 50 μM in assay buffer. After 60 minutes of incubation at 25° C., the reaction is stopped by transferring 1 μl of the reaction mixture to 9 μl of Bridge-IT assay solution A. After 30 min of incubation at 30° C., the fluorescence intensity was measured at λex=485 nm and λem=665 nm using Perkin Elmer ENVISION® Multilabel Reader.
# Chain of Recombinant human IDO (P14902 whole entry): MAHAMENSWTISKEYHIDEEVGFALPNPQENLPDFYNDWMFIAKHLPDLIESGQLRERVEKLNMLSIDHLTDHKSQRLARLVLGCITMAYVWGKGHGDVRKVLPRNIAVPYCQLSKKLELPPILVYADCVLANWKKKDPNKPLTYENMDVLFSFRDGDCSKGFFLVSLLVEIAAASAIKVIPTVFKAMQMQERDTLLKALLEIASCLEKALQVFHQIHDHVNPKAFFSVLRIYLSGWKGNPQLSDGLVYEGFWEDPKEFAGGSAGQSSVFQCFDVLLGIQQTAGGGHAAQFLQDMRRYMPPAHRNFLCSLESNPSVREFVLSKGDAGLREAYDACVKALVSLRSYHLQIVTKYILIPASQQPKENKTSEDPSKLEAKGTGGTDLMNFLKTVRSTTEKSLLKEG
row,IC50 [µM],SMILES
1,> 1,"OC(CC1c2nccc(F)c2-c2cncn21)C1CCCCC1 (single isomer, unassigned) [Compound 101a, 1-cyclohexyl-2-[12-fluoro-4,6,9-triazatricyclo[6.4.0.0^[2,6]]dodeca-1(8),2,4,9,11-pentaen-7-yl]ethan-1-ol]"
2,0.1 to 1,"OC(CC1c2nc(C3CC3)ccc2-c2cncn21)C1CCC(F)(F)CC1 (single isomer, unassigned) [Compound 57b, 2-[10-cyclopropyl-4,6,9-triazatricyclo[6.4.0.0^[2,6]]dodeca-1(8),2,4,9,11-pentaen-7-yl]-1-(4,4-difluorocyclohexyl)ethan-1-ol]"
3,> 1,"OC(CC1c2nc(C(F)(F)F)ccc2-c2cncn21)C1CCC(F)(F)CC1 (single isomer, unassigned) [Compound 77a, 1-(4,4-difluorocyclohexyl)-2-[10-(trifluoromethyl)-4,6,9-triazatricyclo[6.4.0.0^[2,6]]dodeca-1(8),2,4,9,11-pentaen-7-yl]ethan-1-ol]"
4,0.1 to 1,"OC(CC1c2nc(Cl)ccc2-c2cncn21)C1CCCCC1 (single isomer, unassigned) [Compound 55d, 2-[10-chloro-4,6,9-triazatricyclo[6.4.0.0^[2,6]]dodeca-1(8),2,4,9,11-pentaen-7-yl]-1-cyclohexylethan-1-ol]"
5,> 1,"OCC1CCC(F)(CCC2c3c(F)cccc3-c3cncn32)CC1 (single isomer, unassigned) [Compound 84a, [4-fluoro-4-[2-[6-fluoro-5H-imidazo[4,3-a]isoindol-5-yl]ethyl]cyclohexyl]methanol]"
6,> 1,"OC(CC1c2c(Cl)cccc2-c2cncn21)C1(F)CCCCC1 (single isomer, unassigned) [Compound 83c, 2-[6-chloro-5H-imidazo[4,3-a]isoindol-5-yl]-1-(1-fluorocyclohexyl)ethan-1-ol]"
7,> 1,"NC(=O)C1CCC(F)(CCC2c3ccccc3-c3cncn32)CC1 (single isomer, unassigned) [Compound 79a, 4-fluoro-4-[2-[5H-imidazo[4,3-a]isoindol-5-yl]ethyl]cyclohexane-1-carboxamide]"
8,> 1,"NC(=O)CC1CCC(F)(CCC2c3c(Cl)cccc3-c3cncn32)CC1 (single isomer, unassigned) [Compound 113c, 2-[4-[2-[6-chloro-5H-imidazo[4,3-a]isoindol-5-yl]ethyl]-4-fluorocyclohexyl]acetamide]"
9,> 1,"CC(C)(C)C(=O)N1CCC(C(O)CC2c3ncccc3-c3cncn32)CC1 (single isomer, unassigned) [Compound 88b, 1-[4-[1-hydroxy-2-[4,6,9-triazatricyclo[6.4.0.0^[2,6]]dodeca-1(8),2,4,9,11-pentaen-7-yl]ethyl]piperidin-1-yl]-2,2-dimethylpropan-1-one]"
10,> 1,"OC(CC1c2ncccc2-c2cncn21)C1(F)CCC(F)(F)CC1 (single isomer, unassigned) [Compound 87c, 2-[4,6,9-triazatricyclo[6.4.0.0^[2,6]]dodeca-1(8),2,4,9,11-pentaen-7-yl]-1-(1,4,4-trifluorocyclohexyl)ethan-1-ol]"
11,> 1,"COc1ccc2c(n1)C(CC(N)C1CCC(F)(F)CC1)n1cncc1-2 (single isomer, unassigned) [Compound 120a, 1-(4,4-difluorocyclohexyl)-2-[10-methoxy-4,6,9-triazatricyclo[6.4.0.0^[2,6]]dodeca-1(8),2,4,9,11-pentaen-7-yl]ethan-1-amine]"
12,0.1 to 1,"FC(CC1c2ccccc2-c2cncn21)C1CCCCC1 (mixture of isomers) [Compound 108a, 5-[2-cyclohexyl-2-fluoroethyl]-5H-imidazo[4,3-a]isoindole]"
13,> 1,"NC(=O)C1CCC(F)(CCC2c3c(Cl)cccc3-c3cncn32)CC1 (single isomer, unassigned) [Compound 99a, 4-[2-[6-chloro-5H-imidazo[4,3-a]isoindol-5-yl]ethyl]-4-fluorocyclohexane-1-carboxamide]"
14,0.1 to 1,"O=C(O)C1CCC(F)(CCC2c3c(F)cccc3-c3cncn32)CC1 (single isomer, unassigned) [Compound 80b, 4-fluoro-4-(2-[6-fluoro-5H-imidazo[4,3-a]isoindol-5-yl]ethyl)cyclohexane-1-carboxylic acid]"
15,> 1,"OC1CCC(C(O)CC2c3ncccc3-c3cncn32)CC1 (stereo not drawn) [Compound 6a, 4-[1-hydroxy-2-[4,6,9-triazatricyclo[6.4.0.0^[2,6]]dodeca-1(8),2,4,9,11-pentaen-7-yl]ethyl]cyclohexan-1-ol]"
16,< 0.1,"NC(=O)C1CCC(F)(CCC2c3c(Cl)cccc3-c3cncn32)CC1 (single isomer, unassigned) [Compound 99c, 4-[2-[6-chloro-5H-imidazo[4,3-a]isoindol-5-yl]ethyl]-4-fluorocyclohexane-1-carboxamide]"
17,< 0.1,"OCC1CCC(F)(CCC2c3ccccc3-c3cncn32)CC1 (single isomer, unassigned) [Compound 59c, [4-fluoro-4-[2-[5H-imidazo[4,3-a]isoindol-5-yl]ethyl]cyclohexyl]methanol]"
18,> 1,"OC1CCC(F)(CCC2c3cc(F)ncc3-c3cncn32)CC1 (single isomer, unassigned) [Compound 58d, 4-fluoro-4-[2-[10-fluoro-4,6,11-triazatricyclo[6.4.0.0^[2,6]]dodeca-1(8),2,4,9,11-pentaen-7-yl]ethyl]cyclohexan-1-ol]"
19,> 1,"OC1CCC(CCC2c3ncccc3-c3cncn32)CC1 (stereo not drawn) [Compound 47, 4-(2-[4,6,9-triazatricyclo[6.4.0.0^[2,6]]dodeca-1(8),2,4,9,11-pentaen-7-yl]ethyl)cyclohexan-1-ol]"
20,> 1,"COc1ccc2c(n1)C(CC(N)C1CCCCC1)n1cncc1-2 (mixture of isomers) [Compound 118a, 1-cyclohexyl-2-[10-methoxy-4,6,9-triazatricyclo[6.4.0.0^[2,6]]dodeca-1(8),2,4,9,11-pentaen-7-yl]ethan-1-amine]"
21,< 0.1,"NS(=O)(=O)C1CCC(F)(CCC2c3ccccc3-c3cncn32)CC1 (single isomer, unassigned) [Compound 121a, 4-fluoro-4-[2-[5H-imidazo[4,3-a]isoindol-5-yl]ethyl]cyclohexane-1-sulfonamide]"
22,> 1,"CC(C)(C)C(=O)N1CCC(C(O)CC2c3ncccc3-c3cncn32)CC1 (single isomer, unassigned) [Compound 88d, 1-[4-[1-hydroxy-2-[4,6,9-triazatricyclo[6.4.0.0^[2,6]]dodeca-1(8),2,4,9,11-pentaen-7-yl]ethyl]piperidin-1-yl]-2,2-dimethylpropan-1-one]"
23,> 1,"OC(CC1c2ncccc2-c2cncn21)C1CCOCC1 (single isomer, unassigned) [Compound 92b, 1-(oxan-4-yl)-2-[4,6,9-triazatricyclo[6.4.0.0^[2,6]]dodeca-1(8),2,4,9,11-pentaen-7-yl]ethan-1-ol]"
24,0.1 to 1,"O=C(C1CCC(F)(CCC2c3ncccc3-c3cncn32)CC1)N1CCCCC1 (mixture of isomers) [Compound 100a, 7-[2-[1-Fluoro-4-[(piperidin-1-yl)carbonyl]cyclohexyl]ethyl]-4,6,9-triazatricyclo[6.4.0.0^[2,6]]dodeca-1(8),2,4,9,11-pentaene]"
